The text below walks through data of ChEMBL document CHEMBL3045385, “Design, synthesis and molecular modelling of novel 4-thiazolidinones of potential activity against Gram positive bacteria” (2013).

Experiment [1] concerns Pseudomonas aeruginosa. The experiment in a line: Antibacterial activity against Pseudomonas aeruginosa ATCC 27855 after 24 hr by two-fold serial dilution method. It is filed as functional. The following applies: ATCC 27855, 24 h.
In experiment [2] the test system is Candida albicans. The experiment in a line: microbe, parasite or virus in culture. The conditions noted are these: ATCC 10231, 168 h.
Description: Antifungal activity against Candida albicans ATCC 10231 after 7 days by two-fold serial dilution method
Experiment [3] deals with Pseudomonas aeruginosa. Description: Antibacterial activity against Pseudomonas aeruginosa ATCC 27855 at 6.25 to 100 ug/ml after 24 hr by two-fold serial dilution method. The format is functional, organism-based.
For experiment [4], the system named is Candida albicans. The experiment in a line: Antifungal activity against Candida albicans ATCC 10231 at 6.25 to 100 ug/ml after 7 days by two-fold serial dilution method. It is filed as functional, organism-based.
The test system of experiment [5] is Staphylococcus aureus. The experiment in a line: Antibacterial activity against Staphylococcus aureus ATCC 25293 after 24 hr by two-fold serial dilution method. It is filed as functional. The following applies: ATCC 25293, 24 h.
For experiment [6], the system named is Bacillus subtilis. The experiment in a line: Antibacterial activity against Bacillus subtilis ATCC 10400 after 24 hr by two-fold serial dilution method. It is filed as functional. The conditions noted are these: ATCC 10400, 24 h.
In a further experiment the test system is Escherichia coli. The experiment in a line: Antibacterial activity against Escherichia coli ATCC 25922 at 6.25 to 100 ug/ml after 24 hr by two-fold serial dilution method. It is filed as functional, organism-based.
In another experiment the test system is Salmonella typhimurium. The experiment in a line: Antibacterial activity against Salmonella enterica subsp. enterica serovar Typhimurium at 6.25 to 100 ug/ml after 24 hr by two-fold serial dilution method. It is filed as functional, organism-based.
The test system of another experiment is Shigella sonnei. The experiment in a line: Antibacterial activity against Shigella sonnei ATCC 11060 at 6.25 to 100 ug/ml after 24 hr by two-fold serial dilution method. It is filed as functional, organism-based.
Experiment [7] deals with Mycobacterium tuberculosis. Description: Antimycobacterium activity against Mycobacterium tuberculosis H37Rv at 100 ug/ml by Microplate Alamar Blue Assay. It is filed as functional, organism-based. In general terms: The colour change of resazurin is a common sign of viable cells or microbes.
Experiment [8] deals with Staphylococcus aureus. The experiment in a line: Antibacterial activity against Staphylococcus aureus ATCC 25293 at 6.25 to 100 ug/ml after 24 hr by two-fold serial dilution method. It is filed as functional, organism-based.
The subject of experiment [9] is Bacillus subtilis. The experiment in a line: Antibacterial activity against Bacillus subtilis ATCC 10400 at 6.25 to 100 ug/ml after 24 hr by two-fold serial dilution method. It is filed as functional, organism-based.

Converted amounts (≈) assume the structure as drawn. The source made the active and inactive calls. The calls are words filed in the database; no cut-off is given here.

For `Clc1ccc(COC(Cn2ccnc2)c2ccc(Cl)cc2Cl)c(Cl)c1` (configuration not stated) [MICONAZOLE], the MIC against Pseudomonas aeruginosa [1] and in the experiment on Candida albicans [2] was 3.12 µg/mL (≈ 7.5 µM) each time.
Regarding `CC(Oc1cc(Cl)c(Cl)cc1Cl)C(=O)NN1C(=O)CSC1c1ccncc1` (configuration not stated), the result (with Pseudomonas aeruginosa [3]; with Candida albicans [4]; in the experiment with Escherichia coli; in the experiment with Salmonella typhimurium; in the experiment with Shigella sonnei; in [7]) was inactive. Besides, the MIC against Staphylococcus aureus [5] and with Bacillus subtilis [6] was 6.25 µg/mL (≈ 14 µM) throughout.
On to `CC(Oc1cc(Cl)c(Cl)cc1Cl)C(=O)NN1C(=O)CSC1(C)c1ccc(Cl)cc1` (configuration not stated), for which the outcome (with Pseudomonas aeruginosa [3]; in the experiment with Candida albicans [4]; in the experiment with Escherichia coli; with Salmonella typhimurium; in the experiment on Shigella sonnei; in [7]) was inactive. Further, the MIC against Staphylococcus aureus [5] and in the experiment on Bacillus subtilis [6] was 12.5 µg/mL (≈ 25.3 µM) throughout.
As to `Cc1ccc(C2SCC(=O)N2NC(=O)C(C)Oc2cc(Cl)c(Cl)cc2Cl)s1` (configuration not stated), the result (with Pseudomonas aeruginosa [3]; in the experiment on Candida albicans [4]; in the experiment with Escherichia coli; in the experiment with Salmonella typhimurium; with Shigella sonnei; in [7]) was inactive. The MIC in the experiment on Staphylococcus aureus [5] and in the experiment on Bacillus subtilis [6] was 12.5 µg/mL (≈ 26.8 µM) in each case.
Consider `C/C(=N/NC(=O)C(C)Oc1cc(Cl)c(Cl)cc1Cl)c1ccc(Cl)cc1` (configuration not stated), for which the result in the experiment on Pseudomonas aeruginosa [3], in the experiment on Candida albicans [4], in the experiment with Escherichia coli, in the experiment with Salmonella typhimurium, with Shigella sonnei and in the experiment with Staphylococcus aureus [8] was inactive. Moreover, the result (with Bacillus subtilis [9]; in experiment [7]) was inactive.
In the case of `CC(Oc1cc(Cl)c(Cl)cc1Cl)C(=O)N/N=C\c1cccs1` (configuration not stated), the outcome in the experiment with Pseudomonas aeruginosa [3], with Candida albicans [4], with Escherichia coli, in the experiment with Salmonella typhimurium, in the experiment with Shigella sonnei and in the experiment with Staphylococcus aureus [8] was inactive. In addition, the outcome (in the experiment on Bacillus subtilis [9]; in experiment [7]) was inactive.
In the case of `CC(Oc1cc(Cl)c(Cl)cc1Cl)C(=O)N/N=C\c1cccnc1` (configuration not stated), the outcome in the experiment with Pseudomonas aeruginosa [3], in the experiment on Candida albicans [4], in the experiment with Escherichia coli, in the experiment on Salmonella typhimurium, in the experiment on Shigella sonnei and in the experiment with Staphylococcus aureus [8] was inactive. Besides, the outcome (in the experiment with Bacillus subtilis [9]; in [7]) was inactive.
In the case of `CC(Oc1cc(Cl)c(Cl)cc1Cl)C(=O)NN1C(=O)CSC1c1cccc([N+](=O)[O-])c1` (configuration not stated), the result (with Pseudomonas aeruginosa [3]; with Candida albicans [4]; with Escherichia coli; in the experiment on Salmonella typhimurium; in the experiment with Shigella sonnei; in experiment [7]) was inactive. The MIC in the experiment with Staphylococcus aureus [5] and in the experiment on Bacillus subtilis [6] was 12.5 µg/mL (≈ 25.5 µM) in each case.
Turning to `CC(Oc1cc(Cl)c(Cl)cc1Cl)C(=O)NN1C(=O)CSC1c1cccnc1` (configuration not stated), the outcome (in the experiment with Pseudomonas aeruginosa [3]; in the experiment on Candida albicans [4]; with Escherichia coli; with Salmonella typhimurium; in the experiment with Shigella sonnei; in experiment [7]) was inactive. Also, the figures for the MIC against Staphylococcus aureus [5] and in the experiment with Bacillus subtilis [6] were 6.25 µg/mL (≈ 14 µM) and 12.5 µg/mL (≈ 28 µM), respectively.
Consider `Cc1ccc(C2(C)SCC(=O)N2NC(=O)C(C)Oc2cc(Cl)c(Cl)cc2Cl)cc1` (configuration not stated), for which the result (in the experiment with Pseudomonas aeruginosa [3]; with Candida albicans [4]; in the experiment with Escherichia coli; in the experiment with Salmonella typhimurium; in the experiment on Shigella sonnei; in [7]) was inactive. The MIC came out at 12.5 µg/mL (≈ 26.4 µM) with Staphylococcus aureus [5] and 6.25 µg/mL (≈ 13.2 µM) with Bacillus subtilis [6].
As for `CC(Oc1cc(Cl)c(Cl)cc1Cl)C(=O)NN1C(=O)CSC1c1cccs1` (configuration not stated), the result (in the experiment on Pseudomonas aeruginosa [3]; in the experiment with Candida albicans [4]; with Escherichia coli; in the experiment on Salmonella typhimurium; in the experiment with Shigella sonnei; in experiment [7]) was inactive. Also, the MIC against Staphylococcus aureus [5] and in the experiment on Bacillus subtilis [6] was 6.25 µg/mL (≈ 13.8 µM) in each case.
As for `CC(Oc1cc(Cl)c(Cl)cc1Cl)C(=O)NN1C(=O)CSC12C(=O)Nc1ccccc12` (configuration not stated), the outcome (with Pseudomonas aeruginosa [3]; in the experiment with Candida albicans [4]; in the experiment with Escherichia coli; in the experiment on Salmonella typhimurium; in the experiment on Shigella sonnei; in experiment [7]) was inactive. Besides, the MIC is 25 µg/mL (≈ 51.4 µM) against Staphylococcus aureus [5] and 50 µg/mL (≈ 103 µM) against Bacillus subtilis [6].
Take `Cc1ccc(/C=N\NC(=O)C(C)Oc2cc(Cl)c(Cl)cc2Cl)s1` (configuration not stated): the outcome in the experiment with Pseudomonas aeruginosa [3], in the experiment with Candida albicans [4], in the experiment with Escherichia coli, in the experiment with Salmonella typhimurium, with Shigella sonnei and with Staphylococcus aureus [8] was inactive. For the same compound, the outcome (in the experiment on Bacillus subtilis [9]; in experiment [7]) was inactive.
With `C#CCN1C(=O)C2(SCC(=O)N2NC(=O)C(C)Oc2cc(Cl)c(Cl)cc2Cl)c2ccccc21` (configuration not stated), the outcome (in the experiment on Pseudomonas aeruginosa [3]; in the experiment on Candida albicans [4]; with Escherichia coli; with Salmonella typhimurium; with Shigella sonnei; in experiment [7]) was inactive. The MIC in the experiment on Staphylococcus aureus [5] and in the experiment with Bacillus subtilis [6] was 50 µg/mL (≈ 95.3 µM) in each case.
Take `Cc1ccc(/C=N\NC(=O)C(C)Oc2cc(Cl)c(Cl)cc2Cl)o1` (configuration not stated): the result in the experiment with Pseudomonas aeruginosa [3], with Candida albicans [4], with Escherichia coli, in the experiment on Salmonella typhimurium, in the experiment on Shigella sonnei and in the experiment on Staphylococcus aureus [8] was inactive. Further, the outcome (with Bacillus subtilis [9]; in experiment [7]) was inactive.
`Cc1ccc(C2SCC(=O)N2NC(=O)C(C)Oc2cc(Cl)c(Cl)cc2Cl)o1` (configuration not stated): the outcome (in the experiment with Pseudomonas aeruginosa [3]; in the experiment on Candida albicans [4]; in the experiment with Escherichia coli; in the experiment with Salmonella typhimurium; in the experiment on Shigella sonnei; in experiment [7]) was inactive. Besides, the MIC against Staphylococcus aureus [5] and against Bacillus subtilis [6] was 12.5 µg/mL (≈ 27.8 µM) throughout.
`C/C(=N/NC(=O)C(C)Oc1cc(Cl)c(Cl)cc1Cl)c1ccc(C)cc1` (configuration not stated): the result with Pseudomonas aeruginosa [3], with Candida albicans [4], with Escherichia coli, in the experiment on Salmonella typhimurium, in the experiment with Shigella sonnei and in the experiment with Staphylococcus aureus [8] was inactive. The result (in the experiment with Bacillus subtilis [9]; in [7]) was inactive.
Turning to `CC(Oc1cc(Cl)c(Cl)cc1Cl)C(=O)N/N=C\c1ccncc1` (configuration not stated), the result with Pseudomonas aeruginosa [3], in the experiment with Candida albicans [4], in the experiment on Escherichia coli, with Salmonella typhimurium, in the experiment with Shigella sonnei and with Staphylococcus aureus [8] was inactive. In addition, the result (in the experiment on Bacillus subtilis [9]; in [7]) was inactive.
In the case of `C#CCN1C(=O)/C(=N/NC(=O)C(C)Oc2cc(Cl)c(Cl)cc2Cl)c2ccccc21` (configuration not stated), the result with Pseudomonas aeruginosa [3], in the experiment on Candida albicans [4], with Escherichia coli, in the experiment on Salmonella typhimurium, in the experiment on Shigella sonnei and with Staphylococcus aureus [8] was inactive. Further, the outcome (with Bacillus subtilis [9]; in experiment [7]) was inactive.
Consider `CC(Oc1cc(Cl)c(Cl)cc1Cl)C(=O)N/N=C1/C(=O)Nc2ccccc21` (configuration not stated), for which the outcome in the experiment on Pseudomonas aeruginosa [3], with Candida albicans [4], in the experiment on Escherichia coli, in the experiment with Salmonella typhimurium, in the experiment on Shigella sonnei and in the experiment with Staphylococcus aureus [8] was inactive. The result (in the experiment with Bacillus subtilis [9]; in experiment [7]) was inactive.
Consider `CC(Oc1cc(Cl)c(Cl)cc1Cl)C(=O)N/N=C\c1cccc([N+](=O)[O-])c1` (configuration not stated), for which the result with Pseudomonas aeruginosa [3], in the experiment with Candida albicans [4], with Escherichia coli, in the experiment on Salmonella typhimurium, with Shigella sonnei and in the experiment with Staphylococcus aureus [8] was inactive. Further, the result (in the experiment with Bacillus subtilis [9]; in experiment [7]) was inactive.
